Results published in patent publication US20200060276A1, “THIAZOLE COMPOUND AND HERBICIDE” (OAT Agrio Co., Ltd., priority 2017, published 2020).

Assays:
Assay type in all cases: in vivo
Scirpus juncoides = experiment: Test for Herbicidal Effect in Flooding Treatment (#1), SCIJU; conditions: for SCIJU #1 herbicidal effect (growth inhibition grade): flooding treatment at seeding, dose 2 kg/ha, visual observation on day 21; for SCIJU #1 herbicidal effect (growth inhibition rating 0-5): flooding treatment #1
Summary of the method: (§1)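 Flooded soil in cups was seeded 24 h after flooding, then treated with compound in acetone diluted with Tween 80-containing water, dropped onto the water surface at 2 kg/ha. After growth in a glasshouse, growth inhibition was scored visually on day 21 on a 0 (<10%) to 5 (≥90% or complete withering) scale.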

[1] = system: Echinochloa crus-galli (L.) P. Beauv. var. formosensis Ohwi; experiment: Test for Herbicidal Effect in Flooding Treatment (#2), ECHDG at 2-2.5 leaf stage; conditions: for ECHDG (2-2.5L) #2 herbicidal effect (growth inhibition grade): flooding treatment at 2-2.5 leaf stage, dose 0.2 kg/ha, visual observation on day 21; for ECHDG (2-2.5L) #2 herbicidal effect (growth inhibition rating 0-5): flooding treatment #2, 2-2.5 leaf stage
Summary of the method: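 Scoring is a visual 0–5 scale of growth inhibition (0 below 10%, 5 at 90% or more or full withering), taken 21 days after treatment in a glasshouse. Dose was 0.2 kg/ha, applied as acetone/Tween 80 aqueous solution onto flooded soil once seedlings reached the 2–2.5 leaf stage.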

Monochoria vaginalis = experiment: Test for Herbicidal Effect in Flooding Treatment (#1), MONVA; conditions: for MONVA #1 herbicidal effect (growth inhibition grade): flooding treatment at seeding, dose 2 kg/ha, visual observation on day 21; for MONVA #1 herbicidal effect (growth inhibition rating 0-5): flooding treatment #1
Method: (#1) Test for Herbicidal Effect in Flooding Treatment: Styrol cups each having an opening diameter of 8 cm (about 52 cm^2) were respectively filled with soil (45 ml) which had been passed through a sieve (2 mm). Water (about 115 ml) was mixed with the soil such that the soil was flooded. After the soil stood still for 24 hours, Monochoria vaginalis, Echinochloa crus-galli (L.) P. Beauv. var. formosensis Ohwi, Cyperus difformis (umbrella sedge), and Scirpus juncoides were seeded. Each of the compounds of the present invention was dissolved in acetone, and the obtained product was then diluted with water containing Tween 80®. Each of the resultant chemical solutions was dropped on the entire surface of an associated one of treatment sections, so that each section was treated with 1 ml of the respective chemical solution (a dose of 2 kg/ha). After the treatment, the plants were grown in a glasshouse. On day 21, a survey was conducted on the herbicidal activity by visual observation, and evaluation was made according to the following criteria. 0: Growth inhibition effect is less than 10%. 1: Growth inhibition effect is equal to or greater than 10%, and less than 30%. 2; Growth inhibition effect is equal to or greater than 30%, and less than 50%. 3: Growth inhibition effect equal to or greater than 50%, and less than 70%. 4: Growth inhibition effect is equal to or greater than 70%, and less than 90%. 5: Growth inhibition effect is equal to or greater than 90%, or complete withering is achieved. ECHDG=Echinochloa crus-galli (L.) P. Beauv. var. formosensis Ohwi, MONVA=Monochoria vaginalis, SCIJU=Scirpus juncoides, CYMIC=Cyperus microiria.

[2] = system: Echinochloa crus-galli (L.) P. Beauv. var. formosensis Ohwi; experiment: Test for Herbicidal Effect in Flooding Treatment (#1), ECHDG; conditions: for ECHDG #1 herbicidal effect (growth inhibition grade): flooding treatment at seeding, dose 2 kg/ha, visual observation on day 21; for ECHDG #1 herbicidal effect (growth inhibition rating 0-5): flooding treatment #1
Summary of the method: as §1

SMILES | SCIJU #1 herbicidal effect (growth inhibition grade) (Scirpus juncoides) | ECHDG (2-2.5L) #2 herbicidal effect (growth inhibition grade) [1] | MONVA #1 herbicidal effect (growth inhibition grade) (Monochoria vaginalis) | ECHDG #1 herbicidal effect (growth inhibition grade) [2] | SCIJU #1 herbicidal effect (growth inhibition rating 0-5) (Scirpus juncoides) | ECHDG (2-2.5L) #2 herbicidal effect (growth inhibition rating 0-5) [1] | MONVA #1 herbicidal effect (growth inhibition rating 0-5) (Monochoria vaginalis) | ECHDG #1 herbicidal effect (growth inhibition rating 0-5) [2] | inhibition at 200 g/ha ([1]; Echinochloa crus-galli, 504 h, flooding treatment (#2), ECHDG at 2-2.5 leaf stage, dose of 0.2 kg/ha, day 21, visual observation, read-out: growth inhibition effect) [%]
O=S(=O)(Cc1c(F)cccc1OCC(F)(F)C(F)F)c1ncc(Cl)s1 [Compound 1C-60, 5-chloro-2-{[2-(2,2,3,3-tetrafluoropropoxy)-6-fluorophenyl][methanesulfonyl]}-1,3-thiazole] | 5 (Growth inhibition effect is equal to or greater than 90%, or complete withering is achieved) | 5 (Growth inhibition effect is equal to or greater than 90%, or complete withering is achieved) | 5 (Growth inhibition effect is equal to or greater than 90%, or complete withering is achieved) | 5 (Growth inhibition effect is equal to or greater than 90%, or complete withering is achieved) | – | – | – | – | –
COc1cccc(Cl)c1C[S+]([O-])c1ncc(Br)s1 (centres unmarked) [Compound 1B-17] | – | – | – | – | 5 (Growth inhibition effect is equal to or greater than 90%, or complete withering is achieved) | 5 (Growth inhibition effect is equal to or greater than 90%, or complete withering is achieved) | 3 (Growth inhibition effect equal to or greater than 50%, and less than 70%) | 5 (Growth inhibition effect is equal to or greater than 90%, or complete withering is achieved) | –
[O-][S+](Cc1ccccc1OC(F)F)c1ncc(Cl)s1 (centres unmarked) [Compound 1B-2] | – | – | – | – | 5 (Growth inhibition effect is equal to or greater than 90%, or complete withering is achieved) | 5 (Growth inhibition effect is equal to or greater than 90%, or complete withering is achieved) | 5 (Growth inhibition effect is equal to or greater than 90%, or complete withering is achieved) | 5 (Growth inhibition effect is equal to or greater than 90%, or complete withering is achieved) | –
CC(c1c(F)cccc1OCC(F)(F)C(F)F)S(=O)(=O)c1ncc(Br)s1 (centres unmarked) [Compound 1C-165] | 5 (Growth inhibition effect is equal to or greater than 90%, or complete withering is achieved) | 3 (Growth inhibition effect equal to or greater than 50%, and less than 70%) | 5 (Growth inhibition effect is equal to or greater than 90%, or complete withering is achieved) | 5 (Growth inhibition effect is equal to or greater than 90%, or complete withering is achieved) | – | – | – | – | –
CCOc1ccc(Cl)c(Cl)c1CS(=O)(=O)c1ncc(Cl)s1 [Compound 1C-33, 5-chloro-2-[(2-ethoxy-5,6-dichlorophenyl)(methanesulfonyl)]-1,3-thiazole] | 5 (Growth inhibition effect is equal to or greater than 90%, or complete withering is achieved) | 5 (Growth inhibition effect is equal to or greater than 90%, or complete withering is achieved) | 5 (Growth inhibition effect is equal to or greater than 90%, or complete withering is achieved) | 5 (Growth inhibition effect is equal to or greater than 90%, or complete withering is achieved) | – | – | – | – | ≥ 90
[2H]C([2H])(c1c(F)cccc1OC(F)F)S(=O)(=O)c1ncc(Cl)s1 [Compound 1C-131] | 5 (Growth inhibition effect is equal to or greater than 90%, or complete withering is achieved) | 5 (Growth inhibition effect is equal to or greater than 90%, or complete withering is achieved) | 5 (Growth inhibition effect is equal to or greater than 90%, or complete withering is achieved) | 5 (Growth inhibition effect is equal to or greater than 90%, or complete withering is achieved) | – | – | – | – | –
O=S(=O)(Cc1c(Cl)cccc1OCC(F)(F)C(F)(F)F)c1ncc(Cl)s1 [Compound 1C-62] | 5 (Growth inhibition effect is equal to or greater than 90%, or complete withering is achieved) | 4 (Growth inhibition effect is equal to or greater than 70%, and less than 90%) | 5 (Growth inhibition effect is equal to or greater than 90%, or complete withering is achieved) | 5 (Growth inhibition effect is equal to or greater than 90%, or complete withering is achieved) | – | – | – | – | –
O=S(=O)(Cc1c(F)cccc1OC(F)F)c1ncc(Br)s1 [Compound 1C-153] | 5 (Growth inhibition effect is equal to or greater than 90%, or complete withering is achieved) | 5 (Growth inhibition effect is equal to or greater than 90%, or complete withering is achieved) | 5 (Growth inhibition effect is equal to or greater than 90%, or complete withering is achieved) | 5 (Growth inhibition effect is equal to or greater than 90%, or complete withering is achieved) | – | – | – | – | –
[2H]C([2H])(c1c(OCC)ccc(Cl)c1Cl)S(=O)(=O)c1ncc(Cl)s1 [Compound 1C-130, 5-chloro-2-{[2-ethoxy-5,6-dichlorophenyl][dideuterium(methanesulfonyl)]}-1,3-thiazole] | 5 (Growth inhibition effect is equal to or greater than 90%, or complete withering is achieved) | 5 (Growth inhibition effect is equal to or greater than 90%, or complete withering is achieved) | 5 (Growth inhibition effect is equal to or greater than 90%, or complete withering is achieved) | 5 (Growth inhibition effect is equal to or greater than 90%, or complete withering is achieved) | – | – | – | – | –
CCOc1ccc(Cl)c(F)c1CS(=O)(=O)c1ncc(Cl)s1 [Compound 1C-32] | 5 (Growth inhibition effect is equal to or greater than 90%, or complete withering is achieved) | 5 (Growth inhibition effect is equal to or greater than 90%, or complete withering is achieved) | 5 (Growth inhibition effect is equal to or greater than 90%, or complete withering is achieved) | 5 (Growth inhibition effect is equal to or greater than 90%, or complete withering is achieved) | – | – | – | – | –
[O-][S+](Cc1c(F)cccc1OC(F)F)c1ncc(Cl)s1 (centres unmarked) [Compound 1B-3] | – | – | – | – | 5 (Growth inhibition effect is equal to or greater than 90%, or complete withering is achieved) | 5 (Growth inhibition effect is equal to or greater than 90%, or complete withering is achieved) | 5 (Growth inhibition effect is equal to or greater than 90%, or complete withering is achieved) | 5 (Growth inhibition effect is equal to or greater than 90%, or complete withering is achieved) | –
O=S(=O)(Cc1c(OC(F)F)ccc(Cl)c1F)c1ncc(Br)s1 [Compound 1C-157] | 5 (Growth inhibition effect is equal to or greater than 90%, or complete withering is achieved) | 5 (Growth inhibition effect is equal to or greater than 90%, or complete withering is achieved) | 5 (Growth inhibition effect is equal to or greater than 90%, or complete withering is achieved) | 5 (Growth inhibition effect is equal to or greater than 90%, or complete withering is achieved) | – | – | – | – | –
O=S(=O)(Cc1c(F)cc(F)cc1OC(F)F)c1ncc(Br)s1 [Compound 1C-156] | 5 (Growth inhibition effect is equal to or greater than 90%, or complete withering is achieved) | 5 (Growth inhibition effect is equal to or greater than 90%, or complete withering is achieved) | 5 (Growth inhibition effect is equal to or greater than 90%, or complete withering is achieved) | 5 (Growth inhibition effect is equal to or greater than 90%, or complete withering is achieved) | – | – | – | – | –
